Data on five molecules can be found in ChEMBL document CHEMBL1275483, “Staphylococcus aureus cell wall stress stimulon gene-lacZ fusion strains: potential for use in screening for cell wall-active antimicrobials” (2008).

In brackets after ≈: the same amount, converted by molar mass.

What all share (format): functional
For assay [1], the system named is Staphylococcus aureus. Nature of the assay: Induction of Ppbp2::lacZ gene expression in Staphylococcus aureus SH1000 at 1 ug/ml after 2 hrs by beta-galactosidase reporter gene assay relative to untreated control. A general note: Reporter assays use an easily measured gene product as a stand-in for the process of interest.
In assay [2] the test system is Staphylococcus aureus. In words: Induction of PvraSr::lacZ gene expression in Staphylococcus aureus SH1000 at 1 ug/ml after 2 hrs by beta-galactosidase reporter gene assay relative to untreated control.
Assay [3] has as its system Staphylococcus aureus. In words: Induction of PtcaA::lacZ gene expression in Staphylococcus aureus SH1000 at 1 ug/ml after 2 hrs by beta-galactosidase reporter gene assay relative to untreated control.
Assay [4] relates to Staphylococcus aureus. Nature of the assay: Induction of PlytR::lacZ gene expression in Staphylococcus aureus SH1000 at 1 ug/ml after 2 hrs by beta-galactosidase reporter gene assay relative to untreated control.
The test system of assay [5] is Staphylococcus aureus. In words: Induction of PsgtB::lacZ gene expression in Staphylococcus aureus SH1000 at 1 ug/ml after 2 hrs by beta-galactosidase reporter gene assay relative to untreated control.
The subject of assay [6] is Staphylococcus aureus. Nature of the assay: Induction of Ppbp2::lacZ gene expression in Staphylococcus aureus SH1000 at 3 ug/ml after 2 hrs by beta-galactosidase reporter gene assay relative to untreated control.
For assay [7], the system named is Staphylococcus aureus. In words: Induction of PvraSr::lacZ gene expression in Staphylococcus aureus SH1000 at 3 ug/ml after 2 hrs by beta-galactosidase reporter gene assay relative to untreated control.
For assay [8], the system named is Staphylococcus aureus. In words: Induction of PtcaA::lacZ gene expression in Staphylococcus aureus SH1000 at 3 ug/ml after 2 hrs by beta-galactosidase reporter gene assay relative to untreated control.
Assay [9] concerns Staphylococcus aureus. In words: Induction of PlytR::lacZ gene expression in Staphylococcus aureus SH1000 at 3 ug/ml after 2 hrs by beta-galactosidase reporter gene assay relative to untreated control.
Assay [10] has as its system Staphylococcus aureus. In words: Induction of PsgtB::lacZ gene expression in Staphylococcus aureus SH1000 at 3 ug/ml after 2 hrs by beta-galactosidase reporter gene assay relative to untreated control.
The test system of assay [11] is Staphylococcus aureus. In words: Antimicrobial activity against beta-lactamase producing Staphylococcus aureus SH1000.
The test system of assay [12] is Staphylococcus aureus. In words: Induction of Ppbp2::lacZ gene expression in Staphylococcus aureus SH1000 at 2 ug/ml after 2 hrs by beta-galactosidase reporter gene assay relative to untreated control.
Assay [13] relates to Staphylococcus aureus. In words: Induction of PvraSr::lacZ gene expression in Staphylococcus aureus SH1000 at 2 ug/ml after 2 hrs by beta-galactosidase reporter gene assay relative to untreated control.
The subject of assay [14] is Staphylococcus aureus. In words: Induction of PtcaA::lacZ gene expression in Staphylococcus aureus SH1000 at 2 ug/ml after 2 hrs by beta-galactosidase reporter gene assay relative to untreated control.
Assay [15] deals with Staphylococcus aureus. In words: Induction of PlytR::lacZ gene expression in Staphylococcus aureus SH1000 at 2 ug/ml after 2 hrs by beta-galactosidase reporter gene assay relative to untreated control.
Assay [16] has as its system Staphylococcus aureus. Nature of the assay: Induction of PsgtB::lacZ gene expression in Staphylococcus aureus SH1000 at 2 ug/ml after 2 hrs by beta-galactosidase reporter gene assay relative to untreated control.
Assay [17] concerns Staphylococcus aureus. In words: Induction of Ppbp2::lacZ gene expression in Staphylococcus aureus SH1000 at 0.05 ug/ml after 2 hrs by beta-galactosidase reporter gene assay relative to untreated control.
In assay [18] the test system is Staphylococcus aureus. In words: Induction of PvraSr::lacZ gene expression in Staphylococcus aureus SH1000 at 0.05 ug/ml after 2 hrs by beta-galactosidase reporter gene assay relative to untreated control.
Assay [19] deals with Staphylococcus aureus. In words: Induction of PtcaA::lacZ gene expression in Staphylococcus aureus SH1000 at 0.05 ug/ml after 2 hrs by beta-galactosidase reporter gene assay relative to untreated control.
Assay [20] has as its system Staphylococcus aureus. In words: Induction of PlytR::lacZ gene expression in Staphylococcus aureus SH1000 at 0.05 ug/ml after 2 hrs by beta-galactosidase reporter gene assay relative to untreated control.
Assay [21] relates to Staphylococcus aureus. Nature of the assay: Induction of PsgtB::lacZ gene expression in Staphylococcus aureus SH1000 at 0.05 ug/ml after 2 hrs by beta-galactosidase reporter gene assay relative to untreated control.

With `C=C(NC(=O)[C@@H](NC(=O)[C@H](Cc1cnc[nH]1)NC(=O)[C@@H](NC(=O)[C@H](CO)NC(=O)[C@@H]1CS[C@@H](C)[C@H]2NC(=O)C(=C)NC(=O)[C@H](NC(=O)[C@H](CCCCN)NC(=O)[C@H](CCSC)NC(=O)[C@H](CC(N)=O)NC(=O)[C@@H]3CS[C@@H](C)[C@@H](NC(=O)[C@H](CCCNN)NC(=O)[C@@H]4CS[C@@H](C)[C@@H](NC(=O)[C@@H]5CSC[C@@H](NC(=O)/C(=C\C)NC(=O)[C@@H](N)[C@@H](C)CC)C(=O)N[C@@H]([C@@H](C)CC)C(=O)NC(=C)C(=O)N[C@@H]([C@@H](C)CC)C(=O)N5)C(=O)N5CCC[C@H]5C(=O)NCC(=O)N4)C(=O)NCC(=O)N[C@@H](C)C(=O)N[C@@H]([C@@H](C)CC)C(=O)N[C@@H](CCSC)C(=O)NCC(=O)N3)[C@H](C)SC[C@H](NC2=O)C(=O)N[C@H](Cc2cnc[nH]2)C(=O)N1)[C@@H](C)CC)C(C)C)C(=O)N[C@@H](CCCCN)C(=O)O` [NISIN], the “fold change (FC)” value in assay [1] is recorded as 1.02; in assay [2], 0.57; in [3] it was 0.97; in assay [4] it was 1.21; in assay [5], 1.02.
Regarding `COc1cc(Cc2cnc(N)nc2N)cc(OC)c1OC` [TRIMETHOPRIM], the “fold change (FC)” value in assay [1] stood at 0.88; in [2], 0.9; in assay [3] it was 1.24; in [4], 0.92; in assay [5], 1.19.
For the molecule `O=C(N[C@H](CO)[C@H](O)c1ccc([N+](=O)[O-])cc1)C(Cl)Cl` [CHLORAMPHENICOL], the “fold change (FC)” value was 0.94 in assay [6]; 0.88 in [7]; 1.04 in assay [8]; 1.07 in assay [9]; 0.93 in assay [10]. Moreover, 0.5 µg/mL (≈ 1.55 µM) was the least that counted as inhibitory in assay [11] (MIC).
Take `CN(C)[C@@H]1C(O)=C(C(N)=O)C(=O)[C@@]2(O)C(O)=C3C(=O)c4c(O)cccc4[C@@](C)(O)[C@H]3C[C@@H]12` [TETRACYCLINE]: the “fold change (FC)” value amounted to 0.52 in assay [12]; 0.52 in assay [13]; 0.53 in assay [14]; 0.5 in [15]; 0.4 in [16]. Also, in [11], the MIC (commonly the lowest concentration found to suppress growth) stood at 0.5 µg/mL (≈ 1.13 µM).
In the case of `CO[C@H]1/C=C/O[C@@]2(C)Oc3c(C)c(O)c4c(O)c(c(/C=N/N5CCN(C)CC5)c(O)c4c3C2=O)NC(=O)/C(C)=C\C=C\[C@H](C)[C@H](O)[C@@H](C)[C@@H](O)[C@@H](C)[C@H](OC(C)=O)[C@@H]1C` [RIFAMPIN], the “fold change (FC)” value in assay [17] is listed as 1.9; in [18] it was 1.2; in [19], 0.99; in assay [20], 0.98; in assay [21], 1.19. 0.05 µg/mL (≈ 0.0608 µM) was the least that counted as inhibitory in assay [11] (MIC).
